Article PMC3523387 (Planta medica, 2012)

Target: T1, protein tyrosine phosphatase 1B (PTP1B) (Homo sapiens, UniProt P18031)
T1 sequence (P18031 1-435): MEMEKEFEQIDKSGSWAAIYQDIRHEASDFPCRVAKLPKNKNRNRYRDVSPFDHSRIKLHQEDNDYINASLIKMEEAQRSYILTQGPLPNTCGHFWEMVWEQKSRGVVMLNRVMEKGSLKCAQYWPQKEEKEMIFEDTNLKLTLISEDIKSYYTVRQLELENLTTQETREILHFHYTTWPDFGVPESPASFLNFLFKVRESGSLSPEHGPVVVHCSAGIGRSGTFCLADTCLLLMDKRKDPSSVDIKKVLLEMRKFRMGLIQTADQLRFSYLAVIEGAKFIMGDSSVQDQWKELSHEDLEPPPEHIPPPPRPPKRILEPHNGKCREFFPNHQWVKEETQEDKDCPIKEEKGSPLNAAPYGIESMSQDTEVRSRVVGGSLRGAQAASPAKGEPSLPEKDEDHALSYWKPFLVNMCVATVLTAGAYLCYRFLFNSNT
Test: colorimetric pNPP hydrolysis assay with human recombinant PTP1B, dose-response
Format: biochemical

IC50: 20.2 µM
Substance: ratanhiaphenol III [compound 9]
